Test results taken from article PMC4914250, “Cancer therapeutic approach based on conformational stabilization of mutant p53 protein by small peptides” (Oncotarget, 2016).

Experiments:
[1] = test system: H1299 cells expressing mutp53^R175H; test: Crystal violet viability assay, H1299; assay type: cell-based; conditions: 48 h; for Viability H1299: score 0-6 compared to positive control; for mutp53-specific effect on cell number, H1299: H1299 mutp53^R175H versus p53-null
Method: Cell extracts were added to ELISA plates coated with the indicated antibodies to allow mutp53 to react with the peptides and antibodies. αp53-HRP Ab was used for assessment of p53 levels. Numbers represent ratio of absorbance between the PAb1620 and PAb240 samples. All reads were normalized to the control PAb241 reading of each extract. MCF7 (WTp53) and H1299-mutp53^A135V (tsp53) cells were used as positive controls for the WTp53 conformation (1620/240 ratio equals or exceeds 5:1). […] 96 well plates were coated with anti-p53 antibody, cell extracts containing p53 were reacted with oligonucleotides that contain a p53RE consensus binding site, labeled with biotin, in the presence or absence (NT) of test peptides. Streptavidin-HRP is used to quantify the amount of oligos in the well. TMB assay was performed to determine bound mutp53 levels (450nm). MCF7 and the H1299-mutp53^A135V(TS) cells serve as positive controls for WTp53. C.and D. - Bar graphs illustrating the effect of various selected peptides on mut-p53 dependent expression on cell viability. […] D, ES2 cells expressing endogenous mutp53 (blue bars) and ES2 cells knocked out for p53 by CRISPR construct (light blue bars). Cell lines were treated with selected peptides, Cis-platinum was used as positive control for cell death. 48 hours after treatment, cells were washed with PBS, and the remaining attached cells were stained with Crystal violet and washed 4 times with PBS. Stained cells were dissolved in 10% acetic acid and plates were taken for optical density measurement at 595nM.
This simple assay measures the total number of cells, thus reflecting the combination of both cell death and growth arrest effects. […] After 48 hours of treatment cells were stained with crystal violet and OD at 595nm was determined.
Values on the Y-axis reflect the number of cells in the treated wells, normalized to the non-treated samples (NT; red bars).
Cells were cultured in 96 wells plates with 2500-4000 cells/well. Serial dilutions of different peptides were added and the plates incubated for additional 48 h at 37°C. Then medium was removed and cell viability was determined by staining the cells with crystal violet (0.05%) in methanol/PBS (1:5, v/v), for 10 min, followed by 3 washes with PBS. 10% acetic acid was added to each well for 10 min. OD was determined at 595 nm.

[2] = test system: mutp53 in BT549 cell extract; test: ELISA of mutp53 conformation, BT549; assay type: biochemical, human; conditions: score 0-6 compared to positive control;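 also: 0 means no effect and 6 means as or more effective than positive control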
From the text: A total of close to 350 peptides, deduced from the phage sequences, were synthesized and subjected to several alternative complementary methods of semi high-throughput functional screening; we refer to these peptides as pCAPs (p53 conformation activating peptides). First, we used cell-free ELISA assays to evaluate the effect of individual peptides on mutp53 conformation and DNA binding in vitro. For conformation analysis (Figure 2A), microtiter plates were coated with PAb240, PAb1620 or PAb421 as control, then the effect of each peptide on reactivity of mutp53 with these antibodies was examined; WTp53 served as a positive control for PAb1620 reactivity.
96-well plates were coated using 3 different anti p53 monoclonal antibodies, PAb421, PAb240 and PAb1620. Wells were incubated overnight (ON) with 100μl Ab (5μg/ml) in room temp (RT). The liquid was discarded, and the wells were washed 3 times with PBS, 200 μl. Next, blocking with 5% BSA in PBS for 2 hours (RT) was performed, followed by 3 washes in PBS. Samples of mutant and WT p53 proteins (100 μl, 10 μg/ml), together with control peptides or with test peptides 1-326 (5μg /ml), were incubated for 1.5 hours, and then added to the wells for1 hour at RT. 4 washes with PBST were performed. Next, HRP conjugated αp53 antibody (10μg/ml HAF1355 (R&D)) were added to the wells and incubated at RT for 1 hour. Plates were washed 3 times in PBST and TMB substrate solution (50μl each well, Thermo, (Cat. No. ES001-1L-K)) was added and incubated at 37°C for 20 min. The reaction was stopped with 2M Sulfuric acid (50μl). The absorbance was measured at 450 nm with a spectrophotometer. Protein concentration was determined by dividing the absorb an each sample to by the absorbance of PAb421 samples.

mutp53^R175H = test: ELISA of mutp53 DNA binding (p53RE oligonucleotide), H1299-p53^R175H cell extract; assay type: biochemical, human; conditions: for DNA H1299: score 0-6 compared to positive control, mutp53 DNA binding; for binding of mutp53 to the p53RE: H1299-p53^R175H extract, Figure 2B;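 as to DNA H1299: 0 means no effect and 6 means as or more effective than positive control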
Method: Cell extracts were added to ELISA plates coated with the indicated antibodies to allow mutp53 to react with the peptides and antibodies. αp53-HRP Ab was used for assessment of p53 levels. Numbers represent ratio of absorbance between the PAb1620 and PAb240 samples. All reads were normalized to the control […] reading of each extract. MCF7 (WTp53) and H1299-mutp53^A135V (tsp53) cells were used as positive controls for the WTp53 conformation (1620/240 ratio equals or exceeds 5:1). […] 96 well plates were coated with anti-p53 antibody, cell extracts containing p53 were reacted with oligonucleotides that contain a p53RE consensus binding site, labeled with biotin, in the presence or absence (NT) of test peptides. Streptavidin-HRP is used to quantify the amount of oligos in the well. TMB assay was performed to determine bound mutp53 levels (450nm). MCF7 and the H1299-mutp53^A135V(TS) cells serve as positive controls for WTp53. C.and D. - Bar graphs illustrating the effect of various selected peptides on mut-p53 dependent expression on cell viability. […] D, ES2 cells expressing endogenous mutp53 (blue bars) and ES2 cells knocked out for p53 by CRISPR construct (light blue bars). Cell lines were treated with selected peptides, Cis-platinum was used as positive control for cell death. 48 hours after treatment, cells were washed with PBS, and the remaining attached cells were stained with Crystal violet and washed 4 times with PBS. Stained cells were dissolved in 10% acetic acid and plates were taken for optical density measurement at […]. TEXT PRINTED IN THE PICTURE: (A) pCAP1: 0.87 | (A) pCAP2: 0.53 | (A) pCAP3: 0.59 | (A) pCAP4: 0.59 | (A) pCAP5: 0.60 | (A) pCAP6: 0.75 | (A) pCAP23: 1.06 | (A) pCAP24: 1.44 | (A) pCAP36: 1.25 | (A) pCAP47: 1.54 | (A) pCAP54: 1.54 | (A) pCAP60: 2.73 | (A) pCAP68: 2.22 | (A) pCAP83: 1.56 | (A) pCAP97: 2.45 DOUBTS OF THE COPYIST ABOUT THIS PICTURE: Panel A: the numbers over the bars are printed very small, rotated and blurred, so 3, 5, 6, 8 and 9 cannot be told apart with certainty. All values are best readings: pCAP1 0.87, pCAP2 0.53, pCAP3 0.59, pCAP4 0.59, pCAP5 0.60, pCAP6 0.75, pCAP23 1.06, pCAP24 1.44, pCAP36 1.25, pCAP47 1.54, pCAP54 1.54, pCAP60 2.73, pCAP68 2.22, pCAP83 1.56, pCAP97 2.45 / Panel A: the picture prints no measure with the numbers over the bars, so they are given as bare numbers / Panel A: numbers are also printed over the controls, which are not substances and are left out of lines. Best readings: NT 0.60, 60° 30'' 0.48, 60° 1' 0.37, 60° 3' 0.13, 60° 10' 0.05, MCF7 3.32, H1299TS 3.25
Next, we assessed the ability of our selected peptides to restore sequence-specific DNA binding to mutp53. To that end we employed an ELISA kit (R&D) in which cell extracts containing p53 are reacted with a biotinylated p53RE oligonucleotide and then incubated in wells coated with anti-p53 antibody, which is expected to trap the p53 protein and its associated p53RE DNA. The amount of p53RE retained in each well via p53 binding is quantified by incubation with streptavidin-HRP. […] Again, extracts of MCF7 and H1299-tsp53^A135V cells served as positive controls for WTp53 DNA binding activity. […] Importantly, there was substantial overlap between the peptides that stabilized the WT conformation (Figure 2A) and those that increased specific DNA binding (Figure 2B), further reinforcing the conclusion that those peptides stabilize mutp53 in a functional state. This was not seen with the randomly selected peptides 1-6 (black bars).
For these experiments, a commercial p53/DNA binding kit of “R&D” (Cat-DYC1355-5 Lot-1273366FA) was used, in accordance with manufacturer guide lines. Briefly, 96 well plates we coated with anti-p53 antibody overnight. Cell extracts containing p53 are reacted with an oligonucleotide that contains a p53 consensus binding site (provided in the kit), labeled with Biotin, in the presence or absence (NT) of test peptides. […]

Substance	Viability H1299 [1]	Conform BT549 [2]	mutp53-specific effect on cell number, H1299 [1]	DNA H1299 (mutp53^R175H)	binding of mutp53 to the p53RE (mutp53^R175H)
EVTFRHSVV [pCAP-1, randomly selected peptide used as inert comparison]	1	1			
HANLHHT [pCAP-87]	3	2			
HSSHHHPVHSWN [pCAP-83]	4		mutp53-specific effect	5	
IRGRIIR [pCAP-54]		2	mutp53-specific effect	2	marked increase
IRGRIIRRRRRRRRR [pCAP-54R, pCAP-54 with poly arginine tail]	2	2		2	
IRILMFLIGCGR [pCAP-23]	3	2		1	
IRILMFLIGCGRRRRRRRRR [pCAP-23R, pCAP-23 with poly arginine tail]	3	1		3	
LHSKTLVL [pCAP-17]		2		3	
LRCLLLLIGRVG [pCAP-24]		2	mutp53-specific effect	3	
LRCLLLLIGRVGRRRRRRRR [pCAP-24R, pCAP-24 with poly arginine tail]	4	2		3	
SFILFIRRGRLG [pCAP-60]	2	1	mutp53-specific effect	3	marked increase
SFILFIRRGRLGRRRRRRRRR [pCAP-60R, pCAP-60 with poly arginine tail]	2	2		3	
WNHHHSTPHPAH [pCAP-97]	3		mutp53-specific effect	4	marked increase
WNHHHSTPHPAHRRRRRR [pCAP-97R, pCAP-97 with poly arginine tail]	4			4	
YPTQGHLR [pCAP-36]	2		mutp53-specific effect	2	
YRRLLIGMMWRRRRRRRRR [pCAP-68]	3			3	marked increase
myr-PRVLPSPHTIHPSQYP [pCAP-229, myristoylated peptide, similarity to HIPK2]	4			4	
myr-RRIRDPRILLLHFD [pCAP-325]	5	3		4	
myr-RRKHNKHRPEPDSDER [pCAP-221]	2	3		2	
myr-RRKILFIRLMHNKH [pCAP-227, myristoylated peptide, similarity to GAS2]	5	4		3	
myr-RRLIVRILKLPNPPER [pCAP-242]	5	4		4	
